Experimental findings from US12264356B2, “Method for determining sensitivity to SGLT2 inhibitor and sensitivity marker for SGLT2 inhibitor” (NIHON UNIVERSITY, priority 2019, dated 2025) are described below.

The subject of the assay is patients suffering from coronary artery disease complicated with type 2 diabetes. The assay is described as follows: Administration of SGLT2 inhibitor (50 mg Ipragliflozin) for 3 months; changes in individual indicators before and after administration. Particulars: for 1,5-AG after administration of SGLT2 inhibitor: P <0.001. In kind it is in vivo, human. As to the method: Thirty patients suffering from coronary artery disease complicated with type 2 diabetes (28 male patients and 2 female patients; average age: 70.5±8.1 years old) who did outpatient visit and could not sufficiently control their blood glucose level only by administration with an oral hypoglycemic agent were used as subjects. Patients whose casual urinary sugar was positive before administration of the agent were excluded from the subjects. The aforementioned patients were administered with the SGLT2 inhibitor (50 mg Ipragliflozin; 30 cases) alone or in combination with other oral hypoglycemic agents for 3 months. In the additional administration groups, the antidiabetic agents used in combination with the SGLT2 inhibitor were 10 cases of sulfonylurea drugs, 19 cases of DPP-4 inhibitors, 9 cases of thiazolidine drugs, and 4 cases of metformin. The average number of the combined agents was 2.4. During the observation period, the combined antidiabetic agents were not changed.
Before administration of the SGLT2 inhibitor and 3 months after the first administration, 1,5-AG, HbA1c, casual urinary sugar (U-Sugar), LDL cholesterol (LDL-C), hematocrit (Ht), NT-proBNP, and eGFR (estimated glomerular filtration rate) were measured, and changes in individual indicators before and after the administration were examined. Moreover, regarding cases in which the 1,5-AG value before administration of the SGLT2 inhibitor was less than 13 μg/mL (19 male patient cases), changes in individual indicators before and after the administration were examined.
1,5-AG was measured by an enzymatic method (the aforementioned Lana 1,5AG Auto Liquid, manufactured by Nippon Kayaku Co., Ltd.); HbA1c was measured by an HPLC method (manufactured by Tosoh Co., Ltd.); casual urinary sugar was measured by a test paper method (manufactured by Eiken Chemical Co., Ltd.); and LDL cholesterol was measured by an enzymatic method (manufactured by SEKISUI MEDICAL CO., LTD.) and NT-pro BNP was measured by an ELC-EIA method (manufactured by Roche Diagnostics K. K.).
In Table 5 and Table 6, the results are shown with mean±SD, and for statistical analyses, a paired t-test was applied, and p<0.05 was defined to be statistically significant.

Molecules are shown by their SMILES.

For `OC[C@H]1O[C@@H](c2ccc(F)c(Cc3cc4ccccc4s3)c2)[C@H](O)[C@@H](O)[C@@H]1O` [Ipragliflozin], the “1,5-AG after administration of SGLT2 inhibitor” value came out at 1.7 ± 0.8 µg/mL (19 male patients with 1,5-AG less than 13 μg/mL before administration, 50 mg, 3 months, mean ± SD, before 8.6 ± 2.9) and 2.5 ± 2.0 (30 patients, 50 mg, 3 months after first administration, mean ± SD, before administration 12.8 ± 6.7). In addition, the “HbA1c after administration of SGLT2 inhibitor” value (19 male patients with 1,5-AG less than 13 μg/mL before administration, 3 months, before 7.2 ± 0.8, P = 0.13) came to 6.8 ± 0.6 and the “HbA1c after administration of SGLT2 inhibitor” value (30 patients, 50 mg, 3 months, mean ± SD, before 7.0 ± 0.8, P = 0.40) is 7.2 ± 1.2.
